Literature values in patent US12134602B2 (Yale University, priority 2011, dated 2024).

Conditions: in vivo

C/C=C1\[C@H]2C=C(C)C[C@]1(N)c1ccc(=O)[nH]c1C2 [(−)-Huperzine A, (−)-huperzine A]
tolerability: well tolerated
